Experiments:
[1] = molecular target: T1, KRAS G12D and SOS1 proteins (Homo sapiens, UniProt Q07889); assay: KRAS-G12D/SOS1 binding assay (HTRF); conditions: Tag1-SOS1 / Tag2-KRAS G12D, 10 μM GTP
T1 construct: purchased Cisbio 63ADK000CB17PEG
T1 sequence (Q07889 1-1333): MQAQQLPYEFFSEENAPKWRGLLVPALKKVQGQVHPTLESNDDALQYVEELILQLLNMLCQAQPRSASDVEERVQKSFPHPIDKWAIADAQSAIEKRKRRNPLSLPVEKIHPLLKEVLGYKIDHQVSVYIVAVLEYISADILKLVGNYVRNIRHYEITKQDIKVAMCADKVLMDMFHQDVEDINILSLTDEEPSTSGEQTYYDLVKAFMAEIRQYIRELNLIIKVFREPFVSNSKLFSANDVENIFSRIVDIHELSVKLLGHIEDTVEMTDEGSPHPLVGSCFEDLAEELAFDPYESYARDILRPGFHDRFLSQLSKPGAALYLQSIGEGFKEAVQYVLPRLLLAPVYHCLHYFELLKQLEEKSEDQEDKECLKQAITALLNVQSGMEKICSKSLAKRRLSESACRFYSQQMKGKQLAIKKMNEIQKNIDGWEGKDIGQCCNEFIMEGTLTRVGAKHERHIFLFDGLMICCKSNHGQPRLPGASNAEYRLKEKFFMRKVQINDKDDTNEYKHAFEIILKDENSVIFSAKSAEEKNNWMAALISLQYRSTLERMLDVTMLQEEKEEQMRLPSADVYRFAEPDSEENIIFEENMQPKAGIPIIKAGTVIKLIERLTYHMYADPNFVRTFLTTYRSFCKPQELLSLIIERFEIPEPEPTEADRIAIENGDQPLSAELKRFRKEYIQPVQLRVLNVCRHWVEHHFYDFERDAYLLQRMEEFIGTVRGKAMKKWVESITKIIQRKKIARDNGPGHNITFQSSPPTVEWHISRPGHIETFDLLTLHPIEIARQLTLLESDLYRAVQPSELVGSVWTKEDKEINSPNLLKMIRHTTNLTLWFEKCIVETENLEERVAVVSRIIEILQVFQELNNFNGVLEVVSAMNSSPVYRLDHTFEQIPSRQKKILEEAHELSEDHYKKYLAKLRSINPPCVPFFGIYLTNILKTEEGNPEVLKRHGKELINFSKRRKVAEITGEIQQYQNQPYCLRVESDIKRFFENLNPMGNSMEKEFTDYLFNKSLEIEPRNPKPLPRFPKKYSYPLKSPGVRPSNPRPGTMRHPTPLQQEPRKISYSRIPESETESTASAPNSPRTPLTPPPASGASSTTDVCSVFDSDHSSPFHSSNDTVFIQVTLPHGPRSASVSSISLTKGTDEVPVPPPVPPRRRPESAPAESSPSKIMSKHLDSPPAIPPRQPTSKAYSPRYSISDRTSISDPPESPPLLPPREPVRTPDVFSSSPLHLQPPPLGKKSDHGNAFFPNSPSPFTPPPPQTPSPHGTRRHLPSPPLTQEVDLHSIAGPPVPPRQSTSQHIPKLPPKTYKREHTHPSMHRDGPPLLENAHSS
Experimental: (§1) KRAS-WT (or G12C/G12D/G12V)/SOS1 Binding Assay
(§2) Low IC50 values are indicative of high potency of the SOS1 inhibitor compounds in this assay setting.
(§3) The KRAS-WT (or G12C/G12D/G12V)/SOS1 binding assay is performed using an assay kit (Cisbio, Cat #63ADK000CB15PEG or 63ADK000CB16PEG/63ADK000CB17PEG/63ADK000CB18PEG) according to the procedure recommended by the manufacturer. • 1) Thaw and prepare the working solution of Tag1-SOS1 protein and Tag2-KRAS-WT (or G12C/G12D/G12V) protein with final concentration of 10 μM GTP (Sigma, Cat #V900868). • 2) Thaw and prepare the working solution of anti-Tag1-Tb^3+ anti-Tag2-XL665. • 3) Dispense 2 μL of serially diluted compound, 4 μL of Tag1-SOS1 protein and 4 μL of Tag2-KRAS-WT (or G12C/G12D/G12V) protein with GTP into a ProxiPlate-384 Plus, white 384-shallow well microplate (PerkinElmer, Cat #6008280). • 4) Incubate the plate for 15 minutes at room temperature. • 5) Dispense 10 μL of pre-mixed anti-Tag1-Tb^3+ and anti-Tag2-XL665 into the plate. • 6) Seal the plate and incubate for 2 hours at room temperature. • 7) Remove the plate sealer and read on PHERAstar FS (BMG LABTECH, PHERAstar FS). • 8) Calculate the ratio of the acceptor and donor emission signals for each individual well using the following equation.
(§4) [formula] • 9) IC50 values are fitted and calculated by HTRF signal values and log of compound concentrations to nonlinear regression [Log (inhibitor) vs. Response−Variable Slope (four parameters)] using the GraphPad Prism 8.0.

[2] = molecular target: T2, KRAS-WT and SOS1 proteins (Homo sapiens, UniProt Q07889); assay: KRAS-WT/SOS1 binding assay (HTRF); conditions: Tag1-SOS1 / Tag2-KRAS-WT, 10 μM GTP, read-out: Activity Data in Kras: SOS1 Assay, Wild Type
T2 construct: purchased Cisbio 63ADK000CB15PEG
T2 sequence (Q07889 1-1333): T1 sequence (Q07889 1-1333)
Experimental: as §1, §2, §3, §4

Structure (SMILES) | IC50 [1] | IC50 [2]
CNCc1ccccc1-c1ccc([C@@H](C)Nc2nc3ccnn3c3cc(=O)n(C4(C)CC4)cc23)s1 [Example 74, 8-{[(1R)-1-(5-{2-[(methylamino)methyl]phenyl}thiophen-2-yl)ethyl]amino}-11-(1-methylcyclopropyl)-2,3,7,11-tetraazatricyclo[7.4.0.0^{2,6}]trideca-1(13),3,5,7,9-pentaen-12-one] | < 100 nM | < 100 nM
COCC(=O)N1CCC(c2cc3c(N[C@H](C)c4cccc5c4CCC5(F)F)nc(C)nc3n3cnnc23)CC1 [Example 10, (R)-1-(4-(4-((1-(1,1-difluoro-2,3-dihydro-1H-inden-4-yl)ethyl)amino)-2-methyl-[1,2,4]triazolo[4′,3′:1,6]pyrido[2,3-d]pyrimidin-6-yl)piperidin-1-yl)-2-methoxyethan-1-one] | < 100 nM | < 100 nM
Cc1nc(N[C@H](C)c2cccc(C(F)(F)CO)c2)c2cc(O[C@H]3CCN(C)C3)c3nncn3c2n1 [Example 22, 2,2-difluoro-2-(3-((R)-1-((2-methyl-6-(((S)-1-methylpyrrolidin-3-yl)oxy)-[1,2,4]triazolo[4′,3′:1,6]pyrido[2,3-d]pyrimidin-4-yl)amino)ethyl)phenyl)ethan-1-ol] | < 100 nM | < 100 nM
Cc1nc(N[C@H](C)c2cccc(C(F)(F)CO)c2)c2cc(O[C@H]3CCOC3)c3c(cnn3C)c2n1 [Example 38, 2-(3-((R)-1-((2,7-dimethyl-6-(((S)-tetrahydrofuran-3-yl)oxy)-7H-pyrazolo[3,4-h]quinazolin-4-yl)amino)ethyl)phenyl)-2,2-difluoroethan-1-ol] | < 100 nM | < 100 nM
C[C@@H](Nc1nc2ccnn2c2cc(=O)n(C3CCNCC3)cc12)c1cccc(C(F)(F)CO)c1 [Example 77, 8-{[(1R)-1-[3-(1,1-difluoro-2-hydroxyethyl)phenyl]ethyl]amino}-11-(piperidin-4-yl)-2,3,7,11-tetraazatricyclo[7.4.0.0^{2,6}]trideca-1(13),3,5,7,9-pentaen-12-one] | < 100 nM | < 100 nM
Cc1nc(N[C@H](C)c2cccc(C(F)(F)F)c2)c2cc(O[C@H]3CCOC3)c3nncn3c2n1 [Example 17, 12-methyl-7-(oxolan-3-yloxy)-N-[(1R)-1-[3-(trifluoromethyl)phenyl]ethyl]-2,4,5,11,13-pentaazatricyclo[7.4.0.0^{2,6}]trideca-1(9),3,5,7,10,12-hexaen-10-amine] | 100 to 500 nM | 100 to 500 nM
Cc1nc(N[C@H](C)c2cc(C(C)(C)O)cc(C(F)(F)F)c2)c2cc(-c3ccc(=O)n(C)c3)c3c(cnn3C)c2n1 [Example 26, (R)-5-(4-((1-(3-(2-hydroxypropan-2-yl)-5-(trifluoromethyl)phenyl)ethyl)amino)-2,7-dimethyl-7H-pyrazolo[3,4-h]quinazolin-6-yl)-1-methylpyridin-2(1H)-one] | > 5000 nM | > 5000 nM
C[C@@H](Nc1nc2ccnn2c2cc(=O)n([C@H]3CCOC3)cc12)c1cc(N)cc(C(F)(F)F)c1 [Example 70, 5-(((R)-1-(3-amino-5-(trifluoromethyl)phenyl)ethyl)amino)-7-((S)-tetrahydrofuran-3-yl)pyrazolo[1,5-a]pyrido[3,4-e]pyrimidin-8(7H)-one] | < 100 nM | < 100 nM
Cc1nc(N[C@H](C)c2cccc(C(F)(F)CO)c2)c2cc(C3CCNCC3)c3nncn3c2n1 [Example 14, (R)-2,2-difluoro-2-(3-(1-((2-methyl-6-(piperidin-4-yl)-[1,2,4]triazolo[4′,3′:1,6]pyrido[2,3-d]pyrimidin-4-yl)amino)ethyl)phenyl)ethan-1-ol] | < 100 nM | < 100 nM
C[C@@H](Nc1nc2ccnn2c2cc(=O)n([C@H]3CCOC3)cc12)c1cccc(C(F)(F)F)c1 [Example 69, 7-((S)-tetrahydrofuran-3-yl)-5-(((R)-1-(3-(trifluoromethyl)phenyl)ethyl)amino)pyrazolo[1,5-a]pyrido[3,4-e]pyrimidin-8(7H)-one] | 100 to 500 nM | 100 to 500 nM
C[C@@H](Nc1nc2ccnn2c2cc(=O)n(C3(C(F)F)CC3)cc12)c1cccc(C(F)(F)CO)c1 [Example 68, (R)-5-((1-(3-(1,1-difluoro-2-hydroxyethyl)phenyl)ethyl)amino)-7-(1-(difluoromethyl)cyclopropyl)pyrazolo[1,5-a]pyrido[3,4-e]pyrimidin-8(7H)-one] | < 100 nM | < 100 nM
Cc1nc(N[C@H](C)c2cccc(C(F)(F)CO)c2)c2cc(-c3ccc(=O)n(C)c3)c3[nH]ncc3c2n1 [Example 27, (R)-5-(4-((1-(3-(1,1-difluoro-2-hydroxyethyl)phenyl)ethyl)amino)-2-methyl-7H-pyrazolo[3,4-h]quinazolin-6-yl)-1-methylpyridin-2(1H)-one] | < 100 nM | < 100 nM
Cc1nc(N[C@H](C)c2cccc(C(F)(F)CO)c2)c2cc(C3CCN(C)CC3)c3c(cnn3C)c2n1 [Example 30, (R)-2-(3-(1-((2,7-dimethyl-6-(1-methylpiperidin-4-y1)-7H-pyrazolo[3,4-h]quinazolin-4-yl)amino)ethyl)phenyl)-2,2-difluoroethan-1-ol] | < 100 nM | < 100 nM
Cc1nc(N[C@H](C)c2cccc(C(F)(F)CO)c2)c2cc([C@H]3CC[C@H](O)CC3)c3nncn3c2n1 [Example 16, Trans-(R)-4-(4-((1-(3-(1,1-difluoro-2-hydroxyethyl)phenyl)ethyl)amino)-2-methyl-[1,2,4]triazolo[4′,3′:1,6]pyrido[2,3-d]pyrimidin-6-yl)cyclohexan-1-ol] | < 100 nM | < 100 nM
Cc1nc(N[C@H](C)c2cccc(C(F)(F)CO)c2)c2cc(N3CC[C@@H](O)C3)c3c(cnn3C)c2n1 [Example 44, (3R)-1-(4-{[(1R)-1-[3-(1,1-difluoro-2-hydroxyethyl)phenyl]ethyl]amino}-2,7-dimethyl-7H-pyrazolo[3,4-h]quinazolin-6-yl)pyrrolidin-3-ol] | < 100 nM | < 100 nM
COc1cc2c(cc1O[C@H]1CCOC1)c(N[C@H](C)c1cccc(C(F)(F)F)c1)nc1cncn12 [Example 56, 8-methoxy-7-(((S)-tetrahydrofuran-3-yl)oxy)-N—((R)-1-(3-(trifluoromethyl)phenyl)ethyl)imidazo[1,5-a]quinazolin-5-amine] | 500 to 5000 nM | 500 to 5000 nM
CC(=O)N1CCC(c2cc3c(N[C@H](C)c4cc(C(C)(C)O)cc(C(F)(F)F)c4)nc(C)nc3n3cnnc23)CC1 [Example 13, (R)-1-(4-(4-((1-(3-(2-hydroxypropan-2-yl)-5-(trifluoromethyl)phenyl)ethyl)amino)-2-methyl-[1,2,4]triazolo[4′,3′:1,6]pyrido[2,3-d]pyrimidin-6-yl)piperidin-1-yl)ethan-1-one] | > 5000 nM | > 5000 nM
